# According to US8846669B2, “Oxazolidinone derivative and medical composition containing same” (Legochem Biosciences, Inc., priority 2011, dated 2014):
# Like-named read-outs stand apart in the source and are kept apart here.
# Legend:
# Test in all cases: In vitro antibacterial activity, broth microdilution MIC90
# Type in all cases: cell-based
# Enterococcus faecalis = details: strain 5, E. faecalis
# Protocol: (§1) MIC90 was measured by broth microdilution method based on CLSI standards [reference: Clinical and Laboratory Standards Institute Document. (2000) Methods for Dilution Antimicrobial Susceptibility Test for Bacteria that Grow Aerobically-Fifth Edition: M7-A5. CLSI, Villanova, Pa.].
# (§2) Activities of 12 strains including Staphylococcus aureus, Methicillin Resistant Staphylococcus aureus, Staphylococcus epidermidis, Methicillin Resistant Staphylococcus epidermidis, Enterococcus faecalis, Vancomycin Resistant Enterococcus faecalis, Linezolid and Vancomycin Resistant Enterococcus faecalis, Enterococcus faecium, Vancomycin Resistant Enterococcus faecium, Linezolid and Vancomycin Resistant Enterococcus faecium, and Moraxella catarrhalis, were measured, and results are shown in Table 1 below.
# (§3) The final concentration of test material in the antibacterial test was from 0.063 μg/mL (minimum) to 128 μg/mL (maximum), and the final concentration of DMSO used as an excipient was 2.5% (V/V). Linezolid represented by Formula B below (manufactured by Pfizer) was used as a control and bacterial activity thereof was compared with those of the test materials.
# Enterococcus faecium = details: strain 8, E. faecium
# Protocol: as §1, §2, §3
# [1] = tested on: Linezolid and Vancomycin Resistant Enterococcus faecalis; details: strain 7, E. faecalis VanA LR
# Protocol: as §1, §2, §3
# [2] = tested on: Linezolid and Vancomycin Resistant Enterococcus faecium (strain 10); details: strain 10, E. faecium VanA LR
# Protocol: as §1, §2, §3
# [3] = tested on: Linezolid and Vancomycin Resistant Enterococcus faecium (strain 11); details: strain 11, E. faecium VanA LR
# Protocol: as §1, §2, §3
# [4] = tested on: Methicillin Resistant Staphylococcus aureus; details: strain 2, S. aureus MR
# Protocol: as §1, §2, §3
# [5] = tested on: Methicillin Resistant Staphylococcus epidermidis; details: strain 4, S. epidermidis MR
# Protocol: as §1, §2, §3
# Moraxella catarrhalis = details: strain 12, M. catarrhalis
# Protocol: as §1, §2, §3
# Staphylococcus aureus = details: strain 1, S. aureus
# Protocol: as §1, §2, §3
# [6] = tested on: Staphylococcus epidermidis; details: strain 3, S. epidermidis
# Protocol: as §1, §2, §3
# [7] = tested on: Vancomycin Resistant Enterococcus faecalis; details: strain 6, E. faecalis VanA
# Protocol: as §1, §2, §3
# [8] = tested on: Vancomycin Resistant Enterococcus faecium; details: strain 9, E. faecium VanA
# Protocol: as §1, §2, §3
# [9] = Enterococcus faecalis, read-out: MIC90
# [10] = Enterococcus faecium, read-out: MIC90
# [11] = Staphylococcus aureus, read-out: MIC90
# [12] = Staphylococcus epidermidis, read-out: MIC90
# [13] = Moraxella catarrhalis, read-out: MIC90
Structure (SMILES),MIC90 (Enterococcus faecalis; [9]),MIC90 (Enterococcus faecium; [10]),"MIC90 [1, 9]","MIC90 [2, 10]","MIC90 [3, 10]","MIC90 [4, 11]","MIC90 [5, 12]",MIC90 (Moraxella catarrhalis; [13]),MIC90 (Staphylococcus aureus; [11]),"MIC90 [6, 12]","MIC90 [7, 9]","MIC90 [8, 10]",other results
O=C1O[C@@H](CO)CN1c1ccc(-c2ccc(N3C=NOCC3)nc2)c(F)c1 [Compound 58],1 µg/mL,0.5 µg/mL,8 µg/mL,4 µg/mL,8 µg/mL,1 µg/mL,1 µg/mL,8 µg/mL,0.5 µg/mL,0.5 µg/mL,0.5 µg/mL,1 µg/mL,–
COC(=O)NC[C@H]1CN(c2ccc(-c3ccc(N4C=NOCC4)nc3)c(F)c2)C(=O)O1 [Compound 59],0.5 µg/mL,0.25 µg/mL,4 µg/mL,4 µg/mL,4 µg/mL,0.5 µg/mL,1 µg/mL,2 µg/mL,0.25 µg/mL,0.25 µg/mL,0.5 µg/mL,0.25 µg/mL,–
O=C1O[C@@H](Cn2ccnn2)CN1c1ccc(-c2ccc(N3C=NOCC3)nc2)c(F)c1 [Compound 60],0.25 µg/mL,0.125 µg/mL,1 µg/mL,1 µg/mL,2 µg/mL,0.25 µg/mL,0.25 µg/mL,1 µg/mL,0.125 µg/mL,0.25 µg/mL,0.25 µg/mL,0.125 µg/mL,–
O=C1O[C@@H](CNc2ccon2)CN1c1ccc(-c2ccc(N3C=NOCC3)nc2)c(F)c1 [Compound 61],–,–,–,–,–,–,–,–,–,–,–,–,MIC90 (Enterococcus faecalis): 0.5 µg/mL; MIC90 (Enterococcus faecium): 0.25 µg/mL; MIC90 [1]: 2 µg/mL; MIC90 [2]: 2 µg/mL; MIC90 [3]: 2 µg/mL; MIC90 [4]: 0.25 µg/mL; MIC90 [5]: 0.5 µg/mL; MIC90 (Moraxella catarrhalis): 2 µg/mL; MIC90 (Staphylococcus aureus): 0.063 µg/mL; MIC90 [6]: 0.25 µg/mL; MIC90 [7]: 0.5 µg/mL; MIC90 [8]: 0.5 µg/mL
CC(=O)NC[C@H]1CN(c2ccc(-c3ccc(N4CCON=C4C)nc3)c(F)c2)C(=O)O1 [Compound 62],1 µg/mL,0.5 µg/mL,4 µg/mL,8 µg/mL,4 µg/mL,2 µg/mL,4 µg/mL,4 µg/mL,0.5 µg/mL,0.5 µg/mL,1 µg/mL,1 µg/mL,–
COC(=O)NC[C@H]1CN(c2ccc(-c3ccc(N4CCON=C4C)nc3)c(F)c2)C(=O)O1 [Compound 63],2 µg/mL,1 µg/mL,16 µg/mL,16 µg/mL,16 µg/mL,2 µg/mL,4 µg/mL,8 µg/mL,2 µg/mL,1 µg/mL,2 µg/mL,2 µg/mL,–
CC(=O)NC[C@H]1CN(c2ccc(-c3ccc(C4=NOCCN4)nc3)c(F)c2)C(=O)O1 [Compound 64],0.25 µg/mL,0.25 µg/mL,1 µg/mL,1 µg/mL,2 µg/mL,0.5 µg/mL,0.5 µg/mL,2 µg/mL,0.25 µg/mL,0.25 µg/mL,0.25 µg/mL,0.25 µg/mL,–
COC(=O)NC[C@H]1CN(c2ccc(-c3ccc(C4=NOCCN4)nc3)c(F)c2)C(=O)O1 [Compound 65],0.5 µg/mL,0.5 µg/mL,4 µg/mL,4 µg/mL,4 µg/mL,0.5 µg/mL,1 µg/mL,2 µg/mL,0.5 µg/mL,0.5 µg/mL,0.5 µg/mL,0.5 µg/mL,–
O=C1O[C@@H](Cn2ccnn2)CN1c1ccc(-c2ccc(C3=NOCCN3)nc2)c(F)c1 [Compound 66],0.25 µg/mL,0.125 µg/mL,1 µg/mL,1 µg/mL,2 µg/mL,0.5 µg/mL,0.5 µg/mL,1 µg/mL,0.125 µg/mL,0.25 µg/mL,0.25 µg/mL,0.25 µg/mL,–
